Publication PMC8913318 (The Journal of Biological Chemistry, 2022)
Entries after “also recorded” stand apart in the source; their conditions may differ. Like-named read-outs stand apart in the source and are kept apart here.

Key:
[1] = tested on: P. aeruginosa; settings: exposure of P. aeruginosa to arachidonic acid; cited from earlier work
[2] = target: T1, CYP168A1 (Pseudomonas aeruginosa, UniProt Q9I107); assay: biochemical; settings: Ki ± SE, substrate inhibition constant
T1 sequence (Q9I107 1-444): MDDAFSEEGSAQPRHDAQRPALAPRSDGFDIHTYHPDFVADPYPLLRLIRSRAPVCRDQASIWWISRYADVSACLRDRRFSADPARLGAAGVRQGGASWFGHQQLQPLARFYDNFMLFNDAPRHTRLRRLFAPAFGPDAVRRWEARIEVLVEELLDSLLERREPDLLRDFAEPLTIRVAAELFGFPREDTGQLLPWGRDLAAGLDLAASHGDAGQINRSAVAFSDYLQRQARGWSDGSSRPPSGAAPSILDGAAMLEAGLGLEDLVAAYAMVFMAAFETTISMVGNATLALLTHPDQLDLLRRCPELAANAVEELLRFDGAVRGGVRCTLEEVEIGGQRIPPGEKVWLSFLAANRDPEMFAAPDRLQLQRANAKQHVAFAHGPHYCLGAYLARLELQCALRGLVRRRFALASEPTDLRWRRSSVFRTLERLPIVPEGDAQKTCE

[3] = target: T1, CYP168A1; settings: 19-HETE formation; substrate inhibition model
[4] = target: T1, CYP168A1; assay: Ligand Kd determination by optical difference spectroscopy; format: binding; settings: for Δ absorbance maxima: 1 μM CYP168A1
[5] = target: T1, CYP168A1; assay: Recombinant CYP168A1 lauric acid in vitro metabolic assays; format: biochemical
[6] = ND = no spectral shift detected
[7] = lauric acid ω-1-hydroxylation, Hill fit (preferred model)

| Structure (SMILES) | Kd [4] | Δ absorbance maxima [4, 6] | also measured |
| --- | --- | --- | --- |
| CCCCC/C=C\C/C=C\C/C=C\C/C=C\CCCC(=O)O [Arachidonic acid] | 960 ± 70 nM | 0.058 AU | increase in the minimum inhibitory concentration (MIC) for polymyxin B [1]: eightfold increase; Ki ([2]; 18-HETE formation): 16000 ± 8000 nM; Ki ([2]; 19-HETE formation): 13000 ± 8000 nM; Vmax ± SE [3]: 220 pmol/min/nmol P450 |
| CCCCCCCCCCCCCCCC(=O)O [Palmitic acid] | 210 ± 40 nM | 0.064 AU |  |
| CC(C)CCC[C@@H](C)[C@H]1CC[C@H]2[C@@H]3CC=C4C[C@@H](O)CC[C@]4(C)[C@H]3CC[C@]12C [cholesterol] |  |  | Spectral shift of the Soret band (difference spectrum type) ([4]; UV-visible titration of CYP168A1): no spectral changes; also recorded: did not exert any changes |
| CCCCCCCCCCCC(=O)O [Lauric acid] |  | 0.013 AU | Kd ([4]; read-out: Kd ± SE, 1 μM CYP168A1, 100 mM potassium phosphate pH 7.4, one binding site model, ND = no spectral shift detected): 1900 ± 300 nM; proportion of lauric acid metabolized to the ω-hydroxyl derivative ([5]; LC-MS analysis, spinach redox partners and NADPH): < 5%; n, cooperativity value for the substrate binding ([5]; lauric acid ω-1-hydroxylation, Hill fit): 1.5; S50 ± SE [5, 7]: 34 ± 2 µM; Vmax ± SE [5, 7]: 0.12 ± 0.004 nmol/min/nmol P450; Vmax ± SE ([5]; lauric acid ω-1-hydroxylation, Michaelis-Menten fit): 0.14 ± 0.006 nmol/min/nmol P450; Km ([5]; read-out: Km ± SE, lauric acid ω-1-hydroxylation to 11-hydroxylauric acid, Michaelis-Menten fit): 46 ± 5 µM |
| CCCCCCCCCC(=O)O [Decanoic acid] | 21000 ± 4000 nM | 0.016 AU |  |
| Clc1ccc(COC(Cn2ccnc2)c2ccc(Cl)cc2Cl)cc1 (stereo not shown) [Econazole] | 2500 ± 400 nM | 0.026 AU |  |
| Clc1ccc(COC(Cn2ccnc2)c2ccc(Cl)cc2Cl)c(Cl)c1 (stereo not shown) [Miconazole] | 880 ± 180 nM | 0.036 AU |  |
| CCCCCCCCCCCCCCCCCC(=O)O [Stearic acid] | 330 ± 70 nM | 0.078 AU |  |
| CCCCCCCCCCCCCC(=O)O [Myristic acid] | 830 ± 150 nM | 0.048 AU |  |
| CCCCCCCC/C=C\CCCCCCCC(=O)O [Oleic acid] | 370 ± 70 nM | 0.099 AU |  |
| Clc1ccccc1C(c1ccccc1)(c1ccccc1)n1ccnc1 [Clotrimazole] | 3000 ± 400 nM | 0.053 AU |  |
